In one experiment the target is DLK (Homo sapiens (Human), UniProt Q12852). The experiment in a line: DLK biochemical assay (TR-FRET, MKK7 phosphorylation). The procedure: DLK assay is a biochemical assay format designed to screen for inhibitors of DLK. Enzymatic activity of DLK was measured by monitoring phosphorylation of the physiological substrate MKK7 (MAP2K7, Dual specificity mitogen-activated protein kinase kinase 7). Phosphorylation was detected by a TR-FRET system whereby His-tagged MKK7 was labeled by a XL665-labeled anti-His antibody (FRET acceptor, emission 665 nm). DLK phosphorylates MKK7 at T275/S277, which was detected by an Eu-labeled anti-phospho-MKK7 (T275/S277) antibody (F RET donor, excitation 340 nm). Phosphorylation of MKK7 results in an increased TR-FRET signal (Ratio XL665-channel/Eu-channel) and inhibition of enzymatic activity of DLK decreases the TR-FRET signal.
Sequence of DLK (Q12852 1-520): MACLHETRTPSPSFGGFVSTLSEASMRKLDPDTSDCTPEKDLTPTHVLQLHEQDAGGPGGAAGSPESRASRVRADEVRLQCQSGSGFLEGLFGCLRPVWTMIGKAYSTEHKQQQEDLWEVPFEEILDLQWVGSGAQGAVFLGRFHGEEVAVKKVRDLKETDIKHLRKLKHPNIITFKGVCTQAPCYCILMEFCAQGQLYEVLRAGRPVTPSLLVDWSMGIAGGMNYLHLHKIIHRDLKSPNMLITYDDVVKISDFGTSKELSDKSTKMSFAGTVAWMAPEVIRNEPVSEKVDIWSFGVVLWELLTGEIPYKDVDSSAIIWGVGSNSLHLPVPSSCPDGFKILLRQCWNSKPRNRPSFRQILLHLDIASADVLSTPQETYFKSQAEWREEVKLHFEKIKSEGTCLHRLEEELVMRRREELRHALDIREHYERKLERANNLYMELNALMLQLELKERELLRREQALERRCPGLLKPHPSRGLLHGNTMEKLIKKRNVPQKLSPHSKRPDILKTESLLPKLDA
Assay Protocol for 1536 MTP format: test compounds were predispensed (60 nl) in test plates; +3 μl DLK solution (10 nM DLK, catalytic domain, Carna Biosiences, 0.6 mM DTT in assay buffer); +2 μl substrate solution (15 nM MKK7, LDB; 60 μM ATP; 0.4 mM DTT in assay buffer); 90 min incubation at RT; +2 μl detection mix (5 nM XL665-labeled anti-His antibody, Cisbio; 0.1 nM Eu-labeled anti-phospho-MKK7 (T275/S277), Cisbio/Millipore in detection buffer); 16 h incubation at 37° C.; endpoint measurement BMG (HTRF).
Assay Protocol for 384 low volume MTP format: 1 μl of test compounds were pipetted into test plate; +5 μl DLK solution (10 nM DLK, catalytic domain, Carna Biosiences in assay buffer); +5 μl substrate solution (15 nM MKK7, LDB; 60 μM ATP, in assay buffer); 90 min incubation at RT; +9 μl detection mix (20 nM XL665-labeled anti-His antibody, Cisbio; 0.4 nM Eu-labeled anti-phospho-MKK7 (T275/S277), Cisbio/Millipore in detection buffer); 16 h incubation at 4° C.; endpoint measurement BMG (HTRF).
(§1) All indicated concentrations final concentrations.
Assay buffer (384 format): 50 mM Hepes pH 7.5, 10 mM MgCl2, 1 mM EGTA, 1 mM DTT, 0,01% Triton X-100, 0.01% BSA, 1:500 Smart Block.
(§2) Detection buffer: 25 mM Tris/HCl pH 7.5, 100 mM EDTA, 100 mM NaCl, 200 mM KF, 0.01% Tween 20, 1:500 Smart Block.

In another experiment the target is LZK (Homo sapiens (Human), UniProt O43283). The experiment in a line: LZK biochemical assay (TR-FRET, MKK7 phosphorylation). Here is the method: LZK assay is a biochemical assay format designed to screen for inhibitors of LZK. Enzymatic activity of LZK was measured by monitoring phosphorylation of the physiological substrate MKK7 (MAP2K7, Dual specificity mitogen-activated protein kinase kinase 7). Phosphorylation was detected by a TR-FRET system whereby His-tagged MKK7 was labeled by a XL665-labeled anti-His antibody (FRET acceptor, emission 665 nm). LZK phosphorylates MKK7 at T275/S277 which were detected by an Eu-labeled anti-phospho-MKK7 (T275/S277) antibody (FRET donor, excitation 340 nm). Phosphorylation of MKK7 results in an increased TR-FRET signal (Ratio XL665-channel/Eu-channel) and inhibition of enzymatic activity of LZK decreases the TR-FRET signal.
Sequence of LZK (O43283 168-409): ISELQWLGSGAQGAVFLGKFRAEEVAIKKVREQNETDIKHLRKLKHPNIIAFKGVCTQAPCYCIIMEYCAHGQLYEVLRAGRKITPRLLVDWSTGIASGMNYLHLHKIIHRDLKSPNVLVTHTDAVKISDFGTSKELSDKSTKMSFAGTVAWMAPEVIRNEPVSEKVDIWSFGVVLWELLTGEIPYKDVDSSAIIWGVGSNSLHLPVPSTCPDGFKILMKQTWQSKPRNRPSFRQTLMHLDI
Assay Protocol for 384 low volume MTP format: 1 μl of test compound was pipetted into test plate; +5 μl LZK solution (10 nM LZK, catalytic domain, Carna Biosiences in assay buffer); +5 μl substrate solution (15 nM MKK7, LDB; 15 μM ATP, in assay buffer); 90 min incubation at RT; +5 μl detection mix (20 nM XL665-labeled anti-His antibody, Cisbio; 0.4 nM Eu-labeled anti-phospho-MKK7 (T275/S277), Cisbio/Millipore in detection buffer), 16 h incubation at 32° C.; endpoint measurement BMG (HTRF).
as §1
Assay buffer (384 format): 50 mM Hepes pH 7.5, 10 mM MgCl2, 1 mM EGTA, 1 mM DTT, 0.01% Triton X-100, 0.01% BSA, 1:500 Smart Block.
as §2
On the technique in general: In TR-FRET formats the signal depends on donor and acceptor labels being close together.

The structures appear in SMILES notation.

With `C[C@H](NC(=O)c1cc(-c2cc(C(=O)NC3CNC(=O)C3)c3nc(N)nn3c2)cs1)c1ccc(F)cc1` (mixture of isomers) [Compound 28], the half-inhibitory concentration (IC50) amounted to 3.4 nM on DLK and 110 nM at LZK.

Take `C[C@H](NC(=O)c1cc(-c2cc(C(=O)NC3CNC(=O)C3)c3nc(N)nn3c2)cs1)c1ccccc1` (mixture of isomers) [Compound 29]: the concentration for half-maximal inhibition (IC50) was 2.8 nM against DLK and 60 nM against LZK.

For `C[C@H](NC(=O)c1cc(-c2cc(C(=O)NC3CCNC3)c3nc(N)nn3c2)cs1)c1ccc(F)cc1` (mixture of isomers) [Compound 33], the half-maximal inhibitory concentration (IC50) amounted to 12 nM against DLK and 360 nM at LZK.

Turning to `C[C@H](NC(=O)c1cc(-c2cc(C(=O)NC3CCNC3)c3nc(N)nn3c2)cs1)c1ccccc1` (mixture of isomers) [Compound 34], the IC50 at DLK was found to be 55 nM; at LZK, 880 nM.

Take `CC(NC(=O)c1cc(-c2csc(C(=O)N[C@@H](C)c3ccccc3)c2)cn2nc(N)nc12)C(F)(F)F` (mixture of isomers) [Compound 43]: the values for the IC50 on DLK and at LZK were 22 nM and 130 nM, respectively.

Turning to `CC(NC(=O)c1cc(-c2csc(C(=O)N[C@@H](C)c3ccc(F)cc3)c2)cn2nc(N)nc12)C(F)(F)F` (mixture of isomers) [Compound 51], the results for the IC50 against DLK and against LZK were 28.5 nM and 240 nM, respectively.

Take `C[C@H](NC(=O)c1cc(-c2cc(C(=O)NC3CNC(=O)C3)c3nc(N)nn3c2)cs1)c1ccc(F)cc1` (single isomer, unassigned) [Compound 47]: the IC50 was determined as 130 nM against DLK and 3600 nM on LZK.

Regarding `C[C@H](NC(=O)c1cc(-c2cc(C(=O)NC3CNC(=O)C3)c3nc(N)nn3c2)cs1)c1ccc(F)cc1` (single isomer, unassigned) [Compound 48], the half-maximal inhibitory concentration (IC50) against DLK came to 2.4 nM; on LZK, 77 nM.

With `C[C@H](NC(=O)c1cc(-c2cc(C(=O)NC3CCNC3)c3nc(N)nn3c2)cs1)c1ccc(F)cc1` (single isomer, unassigned) [Compound 49], the 50% inhibitory concentration (IC50) on DLK came out at 94 nM; against LZK, 1100 nM.

Take `C[C@H](NC(=O)c1cc(-c2cc(C(=O)NC3CCNC3)c3nc(N)nn3c2)cs1)c1ccccc1` (single isomer, unassigned) [Compound 50]: the IC50 against DLK turned out to be 42 nM; against LZK it was 730 nM.

Consider `C[C@H](NC(=O)c1cc(-c2cc(C(=O)NC3CNC(=O)C3)c3nc(N)nn3c2)cs1)c1ccccc1` (single isomer, unassigned) [Compound 54], for which the IC50 on DLK came to 2.3 nM; on LZK, 30 nM.

`COc1cccc(CNC(=O)c2cc(-c3cc(C(=O)NC(C)C)c4nc(N)nn4c3)cs2)c1` [Compound 3] had an IC50 against DLK of 34 nM.

On DLK, `CC(C)NC(=O)c1cc(-c2csc(C(=O)NCc3ccc(F)cc3)c2)cn2nc(N)nc12` [Compound 4, 2-Amino-6-(5-{[(4-fluorophenyl)methyl]carbamoyl}thiophen-3-yl)-N-(propan-2-yl)[1,2,4]triazolo[1,5-a]pyridine-8-carboxamide] had a half-maximal inhibitory concentration (IC50) of 35 nM.

`CC(C)NC(=O)c1cc(-c2csc(C(=O)N[C@@H](C)c3ccc(F)cc3)c2)cn2nc(N)nc12` [Compound 19, 2-Amino-6-(5-{[(1S)-1-(4-fluorophenyl)ethyl]carbamoyl}thiophen-3-yl)-N-(propan-2-yl)[1,2,4]triazolo[1,5-a]pyridine-8-carboxamide] gave a concentration for half-maximal inhibition (IC50) on DLK of 8.65 nM.

`C[C@H](NC(=O)c1cc(-c2cc(C(=O)NC3COC3)c3nc(N)nn3c2)cs1)c1ccc(F)cc1` [Compound 73] showed a half-inhibitory concentration (IC50) at DLK of 160 nM.

Compound `C[C@H](NC(=O)c1cc(-c2cc(C(=O)NC(C)(C)CO)c3nc(N)nn3c2)cs1)c1ccc(F)cc1` [Compound 78] yielded a half-maximal inhibitory concentration (IC50) against DLK of 6.45 nM.

Turning to `CC(C)NC(=O)c1cc(-c2csc(C(=O)N[C@H](C)c3ccc(F)cc3)c2)cn2nc(N)nc12` [Compound 96], at DLK, the half-inhibitory concentration (IC50) stood at 14 nM.

With `Nc1nc2c(C(=O)N[C@H]3CCOC3)cc(-c3csc(C(=O)NCc4ccc(F)cc4)c3)cn2n1` [Compound 101], at DLK, the IC50 came out at 18 nM.

`Nc1nc2ccc(-c3csc(C(=O)N4CC5(COC5)C4)c3)cn2n1` [Compound 163] yielded an IC50 against DLK of 12000 nM.

Compound `COC(C)CN(C)C(=O)c1cc(-c2ccc3nc(N)nn3c2)cs1` (stereo not drawn) [Compound 164] showed an IC50 against DLK of 28000 nM.

As to `CN(Cc1ccc(F)cc1)C(=O)c1cc(-c2ccc3nc(N)nn3c2)cs1` [Compound 166], the IC50 on DLK was found to be 5200 nM.

`CC1CCCN(C(=O)c2cc(-c3ccc4nc(N)nn4c3)cs2)C1` (stereo not drawn) [Compound 167]: the half-inhibitory concentration (IC50) on DLK was 10000 nM.

In turn, `CC[C@H]1CC[C@H](NC(=O)c2cc(-c3ccc4nc(N)nn4c3)cs2)CC1` [Compound 178] yielded an IC50 on DLK of 3500 nM.

In the case of `CC(C)(C)OC(=O)N1CCCC(NC(=O)c2cc(-c3ccc4nc(N)nn4c3)cs2)C1` (stereo not drawn) [Compound 179], the IC50 against DLK is 3400 nM.

With `NC(=O)c1cc(-c2ccc3nc(N)nn3c2)cs1` [Compound 183], the half-maximal inhibitory concentration (IC50) at DLK stood at 4300 nM.

As for `Nc1nc2ccc(-c3csc(C(=O)NC4CCOC4)c3)cn2n1` (stereo not drawn) [Compound 186], on DLK, the IC50 came to 7600 nM.

The compound `Nc1nc2ccc(-c3csc(C(=O)NCC4CCCO4)c3)cn2n1` (stereo not drawn) [Compound 189] gave a half-inhibitory concentration (IC50) against DLK of 4700 nM.

`Nc1nc2ccc(-c3csc(C(=O)NCC4CCCCO4)c3)cn2n1` (stereo not drawn) [Compound 208]: the IC50 against DLK came to 3000 nM.

`Nc1nc2ccc(-c3csc(C(=O)NCC4CCOC4)c3)cn2n1` (stereo not drawn) [Compound 210] gave an IC50 against DLK of 2700 nM.

On DLK, `Cc1nc(CNC(=O)c2cc(-c3ccc4nc(N)nn4c3)cs2)cs1` [Compound 217] gave an IC50 of 8600 nM.

In the case of `CCn1cc(CNC(=O)c2cc(-c3ccc4nc(N)nn4c3)cs2)cn1` [Compound 218], at DLK, the half-maximal inhibitory concentration (IC50) came out at 8700 nM.

On to `CN1CCC(CNC(=O)c2cc(-c3ccc4nc(N)nn4c3)cs2)CC1` [Compound 229], for which the IC50 at DLK is 7600 nM.

For the compound `COc1ccc2c(c1)CN(C(=O)c1cc(-c3ccc4nc(N)nn4c3)cs1)C2` [Compound 237], the half-inhibitory concentration (IC50) against DLK was 12000 nM.

For `Cn1cc(CNC(=O)c2cc(-c3ccc4nc(N)nn4c3)cs2)cn1` [Compound 244], the 50% inhibitory concentration (IC50) against DLK turned out to be 4100 nM.

`Cn1cncc1CNC(=O)c1cc(-c2ccc3nc(N)nn3c2)cs1` [Compound 252] yielded an IC50 against DLK of 3900 nM.

At DLK, `CCCNc1nc2ccc(-c3csc(C(=O)NCc4cccc(OC)c4)c3)cn2n1` [Compound 253] came in with an IC50 of more than 30000 nM.

Consider `COc1cc(OC)nc(CNC(=O)c2cc(-c3ccc4nc(N)nn4c3)cs2)n1` [Compound 258], for which the midpoint of inhibition on DLK, the IC50, lay at 7000 nM.

On DLK, `Nc1nc2ccc(-c3csc(C(=O)Nc4ccccc4)c3)cn2n1` [Compound 259] returned an IC50 of 2900 nM.

`COc1cccc(CNC(=O)c2cc(-c3ccc4nc(NCCN5CCOCC5)nn4c3)cs2)c1` [Compound 262] showed a half-inhibitory concentration (IC50) against DLK of more than 30000 nM.

On DLK, `CCN(CC)CCNc1nc2ccc(-c3csc(C(=O)NCc4cccc(OC)c4)c3)cn2n1` [Compound 266] showed an IC50 of more than 30000 nM.

`COc1cccc(CNC(=O)c2cc(-c3cc(C(=O)NC(C)C)c4ncnn4c3)cs2)c1` [Compound 390] returned a concentration for half-maximal inhibition (IC50) against DLK of 11000 nM.

`CC(C)NC(=O)c1cc(-c2csc(C(=O)N[C@@H](C)c3ccc(F)cc3)c2)cn2ncnc12` [Compound 391] returned a 50% inhibitory concentration (IC50) against DLK of 2000 nM.

With `CC(C)c1nnc(-c2cc(-c3csc(C(=O)NCc4ccc(F)cc4)c3)cn3nc(N)nc23)s1` [Compound 393], inhibition against DLK was half-maximal at 260 nM (IC50).

Usually IC50 stands for the concentration needed to halve the response being measured. Read a high IC50 as a need for much substance.

The values above are taken from US20230382904A1, “SUBSTITUTED 4-([1,2,4]TRIAZOLO[1,5-a]PYRIDIN-6-YL)THIOPHENE-2-CARBOXAMIDE DERIVATIVES AND USE THEREOF” (The Johns Hopkins University, priority 2020, published 2023).
